Measured values published in patent US11833159B2, “Non-hormonal steroid modulators of NF-kB for treatment of disease” (ReveraGen BioPharma, Inc., priority 2008, dated 2023).

Key:
mdx mice [1] = assay: mdx mouse model: histological evaluation (H&E) of gastrocnemius muscle; assay type: in vivo; conditions: 3 months per oral in feed, Examples 20 and 40 mg/kg/day; for Inflammation of skeletal muscle (H&E histology): in comparison to untreated and prednisolone treated mdx mice; for Degeneration of skeletal muscle (H&E histology) / Regeneration / regenerating muscle fibers (H&E histology): prednisolone 5 mg/kg/day
Method: (§1) Separate groups (n=12-14) of mdx mice were treated with prednisolone (5 mg/kg/day; per oral in feed), Example 1 (20 and 40 mg/kg/day; per oral in feed) and Example 2 (20 and 40 mg/kg/day; per oral in feed) for 3 months. All mice underwent 30 min biweekly treadmill exercise during the treatment duration to unmask the mild disease phenotype of mdx mouse model.
Hematoxylin and Eosin staining of gastrocnemius muscle of untreated mdx mice show significant degeneration and inflammation.

[2] = In vivo mdx mouse model of dystrophy: body weight and muscle mass; conditions: 5 mg/kg/day per oral in feed, at 33.8 weeks age, P<0.05
Method: as §1

mdx mice [3] = assay: mdx mouse model: in vitro force contractions of EDL muscle; assay type: in vivo; conditions: 5 mg/kg/day per oral in feed
Method: as §1
The distal tendon of the extensor digitorum longus (EDL) muscle was tied securely to the lever arm of a servomotor/force transducer (model 305B, Aurora Scientific, Richmond Hill, ON, Canada) and the proximal tendon to a tissue clamp. Muscles were stimulated between two platinum electrodes. […] The muscle length was then measured with calipers and after removal of the muscle from the bath the mass of the muscle was determined. For each muscle, the optimum fiber length (Lf) was calculated by multiplying Lo by a previously determined Lf/Lo ratio of 0.45. Total muscle fiber cross-sectional area was determined by dividing the wet mass by the product of Lf and the density of mammalian skeletal muscle (1.06 mg/mm^3). Maximum isometric specific force (sPo) was determined by dividing Po by the total muscle fiber cross-sectional area.

With C[C@]12CCC(=O)C=C1CCC1C2=CC[C@@]2(C)C1CC[C@]2(O)C(=O)CO (stereo partly drawn) [Example 1, (10S,13S,17R)-17-hydroxy-17-(2-hydroxyacetyl)-10,13-dimethyl-6,7,8,10,12,13,14,15,16,17-decahydro-1H-cyclopenta[a]phenanthren-3(2H)-one] the “Inflammation of skeletal muscle (H&E histology)” value (mdx mice [1]) was “significant decrease”, the “Degeneration of skeletal muscle (H&E histology)” value (“Degeneration … (H&E histology)” for short) (mdx mice [1]) was “significant decrease” and the “Regeneration / regenerating muscle fibers (H&E histology)” value (mdx mice [1]) was “increase in regenerating muscle fibers”.
With C[C@]12C=CC(=O)C=C1CCC1C2=CC[C@@]2(C)C1CC[C@]2(O)C(=O)CO (stereo partly drawn) [Example 2, (10S,13S,17R)-17-hydroxy-17-(2-hydroxyacetyl)-10,13-dimethyl-6,7,8,10,12,13,14,15,16,17-decahydro-3H-cyclopenta[a]phenanthren-3-one] the “Inflammation of skeletal muscle (H&E histology)” value (mdx mice [1]) was “significant decrease”, the “Degeneration … (H&E histology)” value (mdx mice [1]) was “significant decrease” and the “Regeneration / regenerating muscle fibers (H&E histology)” value (mdx mice [1]) was “increase in regenerating muscle fibers”.
In the case of C[C@]12C=CC(=O)C=C1CC[C@@H]1[C@@H]2[C@@H](O)C[C@@]2(C)[C@H]1CC[C@]2(O)C(=O)CO [prednisolone, reference compound], the “Body weight versus untreated mice” value [2] is reported as “significantly lower body weight”, the “Degeneration … (H&E histology)” value (mdx mice [1]) is reported as “appeared to increase degeneration” and the “Regeneration / regenerating muscle fibers (H&E histology)” value (mdx mice [1]) is reported as “decrease in regeneration”. The “Specific force of EDL muscle, difference to untreated group” value (mdx mice [3]) was “no statistically significant (P<0.05) difference”.
